In one assay the test system is T1, SCF^Skp2/Cks1.
T1 construct: 6His-Skp2-(isoform 1, hu,FL), GST-Skp1-; (hu,FL), 6His-Cul1-(hu,FL), UT-Rbx1-; 6His-Cks1-(hu,FL); 6His (N); GST (N); made in house
Briefly: 'Live' SCF^Skp2/Cks1 assay (E3 assay, p27 ubiquitination), ECL. The assay is classed as biochemical, human. The following applies: for follow up IC50 (in words): titration from 300 μM to 10 nM. As to the method: FIG. 23 (a): ‘Live’ SCF^Skp2/Cks1 Assay—ECL ubiquitin titration. Used 60 minute incubation; 25 nM c-Myc p27; anti c-Myc capture for p27 (Millipore 05-274, 1/500); 5 nM E1; 1 μM E2 (HA); 25 nM E3/Cks1; 5 to 0.08 μM Ub; 1000 to 15 μM ATP; streptavidin sulfo tag (MSD, R32AD-1, 1 μg/ml). Hyperbolic increase in signal with [Ub]. Optimum signal after 2 μM ubiquitin. Largely […] of ATP concentration. […] Final assay concentration is set at 2 μM.
FIG. 23 (b): ‘Live’ SCF^Skp2/Cks1 Assay—ECL ATP titration. Used 60 minute incubation; 25 nM c-Myc p27; anti c-Myc capture for p27 (Millipore 05-274, 1/500); 5 nM E1; 1 μM E2 (HA); 25 nM E3/Cks1; 2 μM Ub; 1000 to 7 μM ATP; streptavidin sulfo tag (MSD, R32AD-1, 1 μg/ml). Initial experiments indicated a high signal which was independent of ATP concentration (lowest [ATP] of 21 μM)—indicative of tight binding. […] Km estimated at 4 μM. Final assay concentration set at 100 μM.
FIG. 30 (a): ‘Live’ SCF^Skp2/Cks1 Assay—ECL Inhibitor study—PYR-41 (E1 inhibitor).
FIG. 32: ‘Live’ SCF^Skp2/Cks1 Assay—ECL R140 Kinase inhibitor panel. Used 60 minute incubation; 25 nM c-Myc p27; anti-c-Myc capture for p27 (Millipore 05-274, 1/500); 5 nM E1; 1 μM E2 (HA); 25 nM E3 tetramer; 25 nM Cks1; 2 μM Ub; 100 μM ATP; streptavidin sulfo tag (MSD, R32AD-1, 1 μg/ml).
FIG. 34: ‘Live’ SCF^Skp2/Cks1 Assay—ECL follow up IC50s. Used 60 minute incubation; 25 nM c-Myc p27; anti c-Myc capture for p27 (Millipore 05-274, 1/500); 5 nM E1; 1 μM E2 (HA); 25 nM E3 tetramer; 25 nM Cks1; 2 μM Ub; 100 μM ATP; streptavidin sulfo tag (MSD, R32AD-1, 1 μg/ml). Titration of PYR41 (Calbiochem 662105) from 300 μM to 10 nM (control). Titration of Rottlerin, EGCG, AG538 and K252c from 300 μM to 10 nM.
(§1) Each of the assays in the p27 ubiquitination cascade (E1, E2 and E3) were tested against the E1 inhibitor PYR-41. No pre-charging of either the E1 or E2 was carried out prior to the introduction of the compound although in the E3 assay, p27 phosphorylation by CDK2/Cyclin E was carried out in the absence of inhibitor.
In order to test the feasibility of screening the E3 assay against a range of inhibitors, the assay was tested against a panel of 41 inhibitors (40 known kinase inhibitors and PYR-41) (FIG. 31). […] Using the same assay conditions, the E3 assay was tested against these inhibitors (FIG. 33).

Another assay addresses T2, UbCH3 (Homo sapiens, UniProt P49427).
T2 construct: HA,6His-UbcH3-(hu,FL) (E2); made in house
The experiment in a line: UbCH3 (E2) assay, ECL (anti-HA capture). The assay is classed as biochemical. Conditions: 5 nM E1, 50 nM E2, 2 μM Ub, 100 μM ATP, 60 minute incubation. The method, then: (§2) FIG. 30 (b): E1/E2 Assay—ECL Inhibitor study—PYR-41. Used 60 minute incubation; 2 μM Ub; 100 μM ATP. For E1 assay (Anti-His capture) 50 nM E1. For E2 assay (Anti HA-capture) 5 nM E1; 50 nM E2. Used streptavidin sulfo tag (MSD R32AD-1, 1 μg/ml); titration of PYR41 (Calbiochem 662105) from 300 μM to 10 nM.
as §1

A further assay has as its target T3, E1 (Homo sapiens, UniProt P22314).
T3 construct: literature BiogenNova / Calbiochem (quoted value)
T3 sequence (P22314 1-1058): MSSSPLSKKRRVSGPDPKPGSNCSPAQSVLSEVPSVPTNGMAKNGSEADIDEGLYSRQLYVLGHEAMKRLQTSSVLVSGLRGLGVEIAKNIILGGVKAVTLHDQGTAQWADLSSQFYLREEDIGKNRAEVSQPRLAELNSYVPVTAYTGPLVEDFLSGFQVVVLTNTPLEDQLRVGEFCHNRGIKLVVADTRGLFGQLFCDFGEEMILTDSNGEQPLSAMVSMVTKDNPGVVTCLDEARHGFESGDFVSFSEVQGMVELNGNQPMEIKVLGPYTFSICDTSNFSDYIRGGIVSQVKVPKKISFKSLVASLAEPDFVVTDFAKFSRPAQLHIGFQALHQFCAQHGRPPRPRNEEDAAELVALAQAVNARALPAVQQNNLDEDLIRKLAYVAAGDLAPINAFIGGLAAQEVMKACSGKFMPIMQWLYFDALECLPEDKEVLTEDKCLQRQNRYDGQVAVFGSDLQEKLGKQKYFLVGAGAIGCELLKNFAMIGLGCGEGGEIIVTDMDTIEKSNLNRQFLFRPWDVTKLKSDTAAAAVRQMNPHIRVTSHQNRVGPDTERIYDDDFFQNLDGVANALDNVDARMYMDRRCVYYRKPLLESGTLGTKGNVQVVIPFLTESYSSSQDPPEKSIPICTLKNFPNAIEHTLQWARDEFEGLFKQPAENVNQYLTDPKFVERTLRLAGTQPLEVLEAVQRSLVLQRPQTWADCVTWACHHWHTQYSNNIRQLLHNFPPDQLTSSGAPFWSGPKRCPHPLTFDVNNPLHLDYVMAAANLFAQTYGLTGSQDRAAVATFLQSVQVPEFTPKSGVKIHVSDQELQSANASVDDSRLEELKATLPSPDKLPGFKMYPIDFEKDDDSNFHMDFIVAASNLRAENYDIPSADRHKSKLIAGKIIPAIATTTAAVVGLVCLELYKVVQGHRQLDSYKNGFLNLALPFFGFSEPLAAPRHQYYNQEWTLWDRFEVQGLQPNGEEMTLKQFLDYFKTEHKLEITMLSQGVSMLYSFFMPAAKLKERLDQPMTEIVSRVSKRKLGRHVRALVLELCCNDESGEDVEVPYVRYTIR
The following applies: cited from earlier work.

Assay [1] deals with T4, Ube1 (Homo sapiens, UniProt P22314).
T4 construct: 6His-UBE1-(hu,FL) (E1); made in house
T4 sequence (P22314 1-1058): T3 sequence (P22314 1-1058)
The experiment in a line: E1 assay, HTRF. It is filed as biochemical. Conditions: 1 μM E1, 2 μM Ub, Anti-6His-K, 30 minutes pre-incubation. The method, then:
(§3) FIG. 18: Ube1 Inhibitor study PYR41 in E1 and E1+E2 assay—HTRF. Inhibitor study: 30 minutes pre-incubation with PYR-41. Assays were immediately diluted followed by addition of 2 mM ATP.
(§4) Using conditions identified previously, an IC50 determination for Pyr-41 using the E1 and E1/E2 assays was performed. […] This may be a reflection of the higher enzyme concentrations used in the HTRF assay step (FIG. 18).
For orientation: TR-FRET usually uses a lanthanide donor and a delayed reading to cut background.

Assay [2] addresses T4, Ube1. Briefly: Ube1 (E1) assay, ECL. Conditions: 50 nM E1, 2 μM Ub. It is filed as biochemical. The method, then:
FIG. 11: Ube1 inhibitor study PYR41— ECL. Inhibitor study. Titration of PYR41 (Calbiochem 662105) from 300 μM to 10 nM. Used anti-His capture for E1 (Millipore, 16-255, 1/1000 dil); 50 nM E1; 2 μM Ub; 500 μM ATP; 30-minute pre-incubation with cpd.; 30 minute reaction time.
as §2
For the IC50 determination of Pyr-41, the data shown is that from a 30 minute pre-incubation and a 30 minute assay. The assay was performed in a separate plate and then transferred. For information purposes, another set of assays were performed within the capture/detect plate and stopped immediately by washing off the assay solution, or washed after 60 min. It was interesting to note that even with the wash at time 0 an IC50 for the compound that was in line with the data shown could still be determined.
as §1

The target in another assay is T5, Ube1/UbCH3 (Homo sapiens, UniProt P22314).
T5 construct: 6His-UBE1-(hu,FL) (E1); made in house
T5 sequence (P22314 1-1058): T3 sequence (P22314 1-1058)
Briefly: E1+E2 (Ube1+UbCH3) assay, HTRF. Conditions: 100 nM E1, 1 μM E2, 400 nM Ub. It is filed as biochemical. As to the method:
as §3
BiogenNova quote IC50 value as ˜5 μM.
as §4

The mark [3] stands for this setting: ECL E3 assay, kinase inhibitor panel screen.

SMILES strings stand for the structures. Several values for one entry are separate records, joined by “and”; a condition that tells them apart may be missing. Equal values may be shown once. Entries after “also recorded” stand apart in the source; their conditions may differ.

One may read the Km as the substrate concentration at which the rate is half of its maximum. By IC50 is commonly meant the point on the concentration scale where inhibition reaches its midpoint.

T1 sequence (Q13309 whole entry, canonical isoform): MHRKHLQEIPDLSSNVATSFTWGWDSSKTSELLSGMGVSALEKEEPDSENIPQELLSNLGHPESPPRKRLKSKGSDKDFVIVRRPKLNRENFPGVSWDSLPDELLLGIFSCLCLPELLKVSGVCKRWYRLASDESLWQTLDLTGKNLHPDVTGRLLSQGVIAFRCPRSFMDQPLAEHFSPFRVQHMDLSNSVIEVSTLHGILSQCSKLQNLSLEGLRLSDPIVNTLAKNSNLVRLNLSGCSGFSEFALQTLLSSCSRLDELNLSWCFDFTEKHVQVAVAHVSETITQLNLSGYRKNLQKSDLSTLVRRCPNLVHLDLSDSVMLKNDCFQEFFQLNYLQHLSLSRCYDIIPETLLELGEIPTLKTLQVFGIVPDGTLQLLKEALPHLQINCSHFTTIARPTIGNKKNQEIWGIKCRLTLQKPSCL
T1 sequence (P63208 1-160 isoform P63208-2, further chain): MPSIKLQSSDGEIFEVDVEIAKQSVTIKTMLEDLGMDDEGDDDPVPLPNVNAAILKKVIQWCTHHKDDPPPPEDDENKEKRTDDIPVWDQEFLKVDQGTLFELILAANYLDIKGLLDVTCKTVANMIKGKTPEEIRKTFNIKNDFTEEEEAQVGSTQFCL
T1 sequence (Q13616 whole entry, further chain, canonical isoform): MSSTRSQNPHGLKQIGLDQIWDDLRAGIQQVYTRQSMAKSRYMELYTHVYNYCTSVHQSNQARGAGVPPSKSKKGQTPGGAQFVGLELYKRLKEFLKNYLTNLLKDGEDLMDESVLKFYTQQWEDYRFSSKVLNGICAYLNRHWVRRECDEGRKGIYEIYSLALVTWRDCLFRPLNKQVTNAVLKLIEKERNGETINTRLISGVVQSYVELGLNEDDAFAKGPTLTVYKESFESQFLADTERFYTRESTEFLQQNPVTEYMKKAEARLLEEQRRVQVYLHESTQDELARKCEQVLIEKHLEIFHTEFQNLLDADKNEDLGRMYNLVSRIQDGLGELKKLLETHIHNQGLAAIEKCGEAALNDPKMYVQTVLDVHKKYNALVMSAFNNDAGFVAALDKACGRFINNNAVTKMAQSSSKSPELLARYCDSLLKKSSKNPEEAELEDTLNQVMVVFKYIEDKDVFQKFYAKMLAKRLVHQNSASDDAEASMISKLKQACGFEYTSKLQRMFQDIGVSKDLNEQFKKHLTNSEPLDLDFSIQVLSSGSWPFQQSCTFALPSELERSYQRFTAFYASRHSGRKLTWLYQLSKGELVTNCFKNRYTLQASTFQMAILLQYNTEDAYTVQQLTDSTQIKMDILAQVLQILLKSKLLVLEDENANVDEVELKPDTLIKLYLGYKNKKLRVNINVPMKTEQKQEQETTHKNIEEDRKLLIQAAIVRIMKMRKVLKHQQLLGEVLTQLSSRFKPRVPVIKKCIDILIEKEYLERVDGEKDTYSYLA
T1 sequence (P62877 whole entry, further chain, canonical isoform): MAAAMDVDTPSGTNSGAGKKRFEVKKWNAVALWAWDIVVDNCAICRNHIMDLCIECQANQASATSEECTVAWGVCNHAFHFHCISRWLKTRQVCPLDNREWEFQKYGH
T1 sequence (P61024 whole entry, further chain, canonical isoform): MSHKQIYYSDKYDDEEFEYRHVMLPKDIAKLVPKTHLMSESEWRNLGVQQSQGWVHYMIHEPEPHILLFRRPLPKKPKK
T2 sequence (P49427 whole entry, one chain of several): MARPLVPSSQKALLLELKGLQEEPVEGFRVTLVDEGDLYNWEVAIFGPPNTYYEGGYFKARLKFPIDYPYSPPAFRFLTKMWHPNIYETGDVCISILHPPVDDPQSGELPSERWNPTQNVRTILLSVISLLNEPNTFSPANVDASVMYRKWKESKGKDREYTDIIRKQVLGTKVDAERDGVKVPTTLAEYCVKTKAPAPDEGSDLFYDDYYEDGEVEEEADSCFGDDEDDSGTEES

For `N#C/C(=C\c1ccc(O)c(O)c1)C(=O)c1ccc(O)c(O)c1` [AG538], the “inhibition in kinase inhibitor panel (in words)” value (from here on “inhibition … (in words)”) in the assay on SCF^Skp2/Cks1 (setting [3]) was “show up as inhibitors”.

`Nc1ncnc2c1ncn2[C@@H]1O[C@H](COP(=O)(O)OP(=O)(O)OP(=O)(O)O)[C@@H](O)[C@H]1O` [ATP, Adenosine-5′-Triphosphate]: in the assay with SCF^Skp2/Cks1 (ECL E3 assay, ATP titration 1000 to 7 μM, 2 μM Ub, read-out: apparent Km for ATP), the Michaelis-Menten constant (Km) was approximately 4 µM.

With `O=C(O[C@@H]1Cc2c(O)cc(O)cc2O[C@@H]1c1cc(O)c(O)c(O)c1)c1cc(O)c(O)c(O)c1` [EGCG], the “inhibition … (in words)” value with SCF^Skp2/Cks1 (setting [3]) is on record as “show up as inhibitors; also recorded: moderate amounts of inhibition”. On SCF^Skp2/Cks1 (ECL E3 assay), the “follow up IC50 (in words)” value was “in the μM range”.

As to `O=C1NCc2c1c1c3ccccc3[nH]c1c1[nH]c3ccccc3c21` [K252c], in the assay with SCF^Skp2/Cks1 (setting [3]), the “inhibition … (in words)” value is “show up as inhibitors; also recorded: moderate amounts of inhibition”. Besides, the “follow up IC50 (in words)” value on SCF^Skp2/Cks1 (ECL E3 assay) was “false positive result”.

With `CCOC(=O)c1ccc(N2NC(=O)/C(=C/c3ccc([N+](=O)[O-])o3)C2=O)cc1` [PYR-41], the half-maximal inhibitory concentration (IC50) on UbCH3 was 3.2 µM; at E1 (quoted by BiogenNova / Calbiochem, vs. E1), approximately 5 µM; against Ube1 [1], 43 µM; against SCF^Skp2/Cks1 (ECL, 25 nM c-Myc p27, 5 nM E1, 1 μM E2, 25 nM E3 tetramer, 25 nM Cks1, 2 μM Ub, 100 μM ATP, 60 minute incubation), 55 µM and 84 µM; at Ube1 [2] (500 μM ATP, 30 minute pre-incubation with cpd, 30 minute reaction time), 1.3 µM; on Ube1 [2] (anti-His capture, 100 μM ATP, 60 minute incubation), 7.8 µM. Besides, the IC50 was 16 µM at Ube1/UbCH3 (Anti-6His-K detection) and 20 µM against Ube1/UbCH3 (Anti-FLAG-K detection). Further, the “reported values for the inhibitor (in words)” value at E1 (literature) is “low micromolar range”. Further, in the assay with SCF^Skp2/Cks1 (setting [3]), the “inhibition in panel of 41 inhibitors” value is more than 80%.

On to `CC(=O)c1c(O)c(C)c(O)c(Cc2c(O)c3c(c(C(=O)/C=C/c4ccccc4)c2O)OC(C)(C)C=C3)c1O` [Rottlerin], for which the “inhibition … (in words)” value in the assay on SCF^Skp2/Cks1 (setting [3]) is recorded as “show up as inhibitors; also recorded: moderate amounts of inhibition”. Also, the “follow up IC50 (in words)” value on SCF^Skp2/Cks1 (ECL E3 assay) is listed as “in the μM range”.

Source of the values: US10024865B2, “Ubiquitination assay” (ITI Scotland Limited, priority 2010, dated 2018).
